Data as given in EP2229935A1, “Peptide derivatives or pharmaceutically acceptable salts thereof, method for producing the same, use of said derivatives and pharmaceutical composition” (Nebolsin, Vladimir Evgenievich, priority 1997, dated 1999).
Like-named read-outs stand apart in the source and are kept apart here. Marks after values point to notes of the source that are not given here.

Key:
[1] = tested on: Lewis pulmonary carcinoma (LLC); assay: Lewis pulmonary carcinoma growth; format: in vivo; conditions: mice with LLC, day 12; for Growth inhibition percent: compound in drinking water; for Tumor volume (mm^3): compound in drinking water from 24 hours after transplantation
Description: Experiments were carried out on male mice with initial body mass 18-20 g. Each group included 10 animals. […] Administration of compounds II, III, IX, X, XII, XIV, XV, XVI, XVII, XIX, XXII, XLVII in drinking water was commenced 24 hours following transplantation and continued till the end of experiment. Effect of the compounds on Lewis rat pulmonary carcinoma (LLC) was estimated by day 12 of experiment by change in tumor volume expressed in mm^3.

hydroxyl radical = assay: Hydroxyl radical formation in the Fenton reagent (chemiluminescence); format: biochemical
Description: Active oxygen forms (AOF) of different nature were generated in the following systems: • A. Hydroxyl radical - in the mixture of FeSO4 with H2O2 (the Fenton reagent) [Halliwell B. Superoxide-dependent formation of hydroxyl radicals in the presence of iron salts. […] Incubation medium comprised 5 mM KH2PO4 (pH 7.4); 5 mM FeSO4; 2 mM luminol. H2O2 at final concentration 5 mM was introduced into a cuvette through a dispencer following background luminescence recording of the reagents' mixture. 5 to 10 ml of the test compounds dissolved in water were at needed concentration introduced into a cuvette.
CL flash recording duration after mixing ingredients, depended on a particular process kinetics. For each system, CL light sum (mV) was determined in the control samples without preparations (I-) and in samples comprising respective concentrations of preparations (I+). To estimate CL inhibition (activation) degree, the I+/I- ratio (in relative units) was found in the studied systems.
When H2O2 was introduced into phosphate buffer comprising iron sulfate, CL flash occured which was caused by formation of predominantly hydroxyl radical in the reaction mixture.

mongrel male rats = assay: Hypolipidemic activity: experimental hyperlipidemia (atherogenic load); conditions: atherogenic diet; for Kcs: cholesterol index;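 as to all read-outs here: serum drawn 18 h after the final dose from rats deprived of food over that interval, groups of 10 animals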
[2] = tested on: Strain Aichi of type A human influenza virus; format: in vivo; conditions: 100 mg/kg, 24 and 2 hours prior and 3 days post infection
mongrel female rats = assay: Hepatoprotective activity: subchronic liver lesion (hepatitis) with CCl4; format: in vivo; conditions: rats, CCl4 hepatitis
Description: Hepatoprotective properties of the compounds were studied on a model of subchronic liver lesion (hepatitis) with carbon quadrichloride.
70 mongrel female rats with initial body mass 190-200 g fed a standard vivarium ration, were used in experiment. Animals were divided into 7 groups (10 rats each): • Group 1 - control one; during the first four days of experiment animals were subcutaneously injected 0.2 ml vaseline oil; • Group 2 - during the first four days animals were subcutaneously injected 50% CCl4 solution in vaseline oil at a rate of 0.1 ml per 100 g body mass; • Group 3 - Legalon in a starch gel was administered orally for 8 days at a dose 30 mg/kg against the background of CCl4 administration; […] , resepectively, was administered in a way similar to group III; […] , resepectively, was administered in a way similar to group III.
The test compounds and Legalon were administered to animals 1 hour prior to CCl4 administration. 24 hours after the last administration of the drugs, animals were decapitated.
Activity of blood serum transaminases ALT and AST was assessed using the conventional Frenkel-Rightman method [Laboratory examination methods in the clinic. Ed. by Menshikov V.V. Moscow, Meditsina publishers (1969), 302 pp.].
The published method [Rodionova L.P. Modification of blood serum trigyceride level determination method. Laboratomoye delo (Laboratory Matter) (1980), No 5, pp. 297-299] was used to determine blood serum TG level.
Blood serum LP final product MDA was determined using the published method [Korobeinikova E.N. Modification of lipid peroxydation product determination in reaction with thiobarbituric acid. Laboratomoye delo (Laboratory Matter) (1989), No 7, pp. 8-10]. Concentration of TBA-active products was calculated using regression equation: C = 0.21 + 0.26D, [formula] where C - concentration of TBA-active products (in nM MDA per 1 ml of serum), D - index D535 -D580 (in optic density units).
Total hepatic lipids were extracted using the modified Folch method [Cates M. Technology of Lipidology. Moscow, Mir publishers (1975), pp. 74-76]. Quantative content of lipid fractions was assessed with thin layer chromatography method (TLC) using the system of solvents hexane:diethyl ether:acetic acid at ratio 80:20:2. Zones of individual lipid fractions were determined using 10% alcohol solution of phosphoromolyobdenic acid which following elution were spectrophotometrically analysed at 600 nm.
Hepatic MDA level was determined using the published method [Stalnaya I.D., Garishvili T.G. Malonic dialdehyde determination method using thiobarbituric acid. In: Modem methods in biochemistry. Moscow, Meditsina publishers (1977), pp. 66-69]. MDA quantity was calculated using molar extinction coefficient value of stained trimethynic complex formed by MDA with two TBA molecules: E = 1.56 × 10^5 (cm)^-1 × M^-1 [formula]

[3] = 0.01 mM, control of the series as in the table
[4] = 0.1 mM, control of the series as in the table
[5] = 1 mM, control of the series 7839 ± 171, 1120 ± 163, 4974 ± 283 or 1332 ± 172
[6] = blood serum, 10 µg/kg for 10 days
[7] = blood, oral last four days, 50 µg/kg
[8] = blood serum, oral 8 days 30 mg/kg
[9] = blood serum, oral 8 days, daily dose 30.0 mg/kg

O=C(O)CCCC(=O)NCCc1ccccn1 [compound XX, N-GLUTARYL-2-(2-AMINOETHYL)PYRIDINE]
Growth inhibition percent [1]: 16% | Tumor volume (mm^3) [1]: 1148 ± 112 mm^3 | relative effect: I+/I- (hydroxyl radical; 0.01 mM): 0.85 | Chemiluminiscence intensity (mV) + σn-1 (hydroxyl radical; [3]): 4205 ± 234 mV | relative effect: I+/I- (hydroxyl radical; 0.1 mM): 0.81 | Chemiluminiscence intensity (mV) + σn-1 (hydroxyl radical; [4]): 4018 ± 201 mV | relative effect: I+/I- (hydroxyl radical; 1 mM): 0.11 | Chemiluminiscence intensity (mV) + σn-1 (hydroxyl radical; [5]): 536 ± 124 mV

O=C(O)c1cccnc1 [nicotinic acid, reference compound]
HDL-CS (mongrel male rats; [6]): 42.1 ± 4.2***^1.2 | LDL-CS+ VLDL-CS (mongrel male rats; [6]): 25.7 ± 2.8***^2 | Total-CS (mongrel male rats; [6]): 65.7 ± 3.5 | Triglycerids (mongrel male rats; [6]): 89.4 ± 6.2***^2 | Kcs (mongrel male rats; 10 µg/kg for 10 days): 0.56***^2

O=C(O)CCCC(=O)NCCN1CCOCC1 [XIX, N-GLUTARYL-4-(2-AMINOETHYL)MORPHOLINE]
Growth inhibition percent [1]: 28% | Tumor volume (mm^3) [1]: 994 ± 173 mm^3 | Chemiluminiscence intensity (mV) + σn-1 (hydroxyl radical; 1 µM, control of the series as in the table): 49089 ± 269 mV | relative effect: I+/I- (hydroxyl radical; 0.01 mM): 0.77 | Chemiluminiscence intensity (mV) + σn-1 (hydroxyl radical; [3]): 3846 ± 184 mV | relative effect: I+/I- (hydroxyl radical; 0.1 mM): 0.68 | Chemiluminiscence intensity (mV) + σn-1 (hydroxyl radical; [4]): 3377 ± 222 mV | relative effect: I+/I- (hydroxyl radical; 1 mM): 0.13 | Chemiluminiscence intensity (mV) + σn-1 (hydroxyl radical; [5]): 626 ± 56 mV

O=C(O)CCCC(=O)NCCc1c[nH]c2ccc(OCc3ccccc3)cc12 [XIV, N-GLUTARYL-O-BENZYLSEROTONIN]
Growth inhibition percent [1]: 68% | Tumor volume (mm^3) [1]: 779 ± 94** mm^3

COc1ccc2[nH]cc(CCNC(=O)CCCC(=O)O)c2c1 [compound XVI, N-GLUTARYL-5-O-METHYLSEROTONIN]
Growth inhibition percent [1]: 56% | Tumor volume (mm^3) [1]: 1076 ± 69** mm^3

CC(=O)NC(CC(=O)O)C(=O)NCCc1c[nH]cn1 (stereo not drawn) [LI, N-Acethyl- α-Aspartylhistamine]
HDL-CS (mongrel male rats; [7]): 39,8±1,6**^A | LDL-CS+ VLDL-CS (mongrel male rats; [7]): 59,3±3,5*^A | Total CS (mongrel male rats; [7]): 99,1±4,5 | Triglycerides (mongrel male rats; [7]): 132,1±17,4**^A | Kcs (mongrel male rats; oral last four days, 50 µg/kg): 1,49±0,07***^A

CC(=O)NC(CC(=O)NCCc1c[nH]cn1)C(=O)O (stereo not drawn) [L, N-Acethyl-β -Aspartylhistamine]
HDL-CS (mongrel male rats; [7]): 31,0±2,1 | LDL-CS+ VLDL-CS (mongrel male rats; [7]): 63,1±2,4*^A | Total CS (mongrel male rats; [7]): 94,1±2,1 | Triglycerides (mongrel male rats; [7]): 141,6±12,6**^A | Kcs (mongrel male rats; oral last four days, 50 µg/kg): 2,03±0,09***^A

O=C(O)CCCC(=O)NCCc1c[nH]c2ccc(O)cc12 [compound XV, N-GLUTARYLSEROTONIN]
Growth inhibition percent [1]: 63% | Tumor volume (mm^3) [1]: 889 ± 67** mm^3

CCOC(=O)c1c(CSc2ccccc2)n(C)c2cc(Br)c(O)c(CN(C)C)c12 [Arbidol]
MLT, days ([2]; series with Control - 2 (9.1)): 13.88*^2 days | Survival rate in percent ([2]; series with Control - 2 (34.5)): 94.7*^2% | Protection degree in percent ([2]; series with Control - 2): 60.2% | MLT, days ([2]; series with control - 1 (5.76)): 9.22* days | Survival rate in percent ([2]; series with control - 1 (16.7)): 43.4* percent | Protection degree in percent ([2]; series with control - 1): 26.7%

COc1cc(C2Oc3cc([C@H]4Oc5cc(O)cc(O)c5C(=O)[C@@H]4O)ccc3OC2CO)ccc1O (some centres unmarked) [Legalon, reference compound]
Cholesterol level, mg/100 ml VLDL-CS (mongrel female rats; blood serum, TG/5, oral 8 days 30 mg/kg): 15.7 ± 1.1 p<0.05 mg/100 ml | Cholesterol level, mg/100 ml LDL-CS (mongrel female rats; blood serum, calculated by formula, oral 8 days 30 mg/kg): 20.1 ± 1.1 p<0.01 mg/100 ml | Cholesterol level, mg/100 ml HDL-CS (mongrel female rats; [8]): 54.8 ± 2.5 mg/100 ml | Cholesterol level, mg/100 ml total-CS (mongrel female rats; [8]): 90.9 ± 3.4 mg/100 ml | TG level, mg/100ml (mongrel female rats; [8]): 78.0 ± 6.2 p<0.05 mg/100ml | ALT, nM/dl (mongrel female rats; [9]): 622 ± 36 nM/dl | AST, nM/dl (mongrel female rats; [9]): 531 ± 22 nM/dl | Lipid composition (in percent of total lipids) FCS (mongrel female rats; liver, oral 8 days 30 mg/kg): 15.0 ± 0.4 p<0.01% of total lipids | Lipid composition (in percent of total lipids) Phospholipids (mongrel female rats; liver, oral 8 days 30 mg/kg): 19.7 ± 1.1% of total lipids | Lipid composition (in percent of total lipids) Triglycerides (mongrel female rats; liver, oral 8 days 30 mg/kg): 44.1 ± 1.9% of total lipids | Hepatic MDA, nM/l (mongrel female rats; 30.0 mg/kg): 4.17 ± 0.31 p<0.001 nM/l | Serum MDA, nM/l (mongrel female rats; 30.0 mg/kg): 5.58 ± 0.15 nM/l
